Results: ChEMBL document CHEMBL5584324, “Exploiting spirooxindoles for dual DNA targeting/CDK2 inhibition and simultaneous mitigation of oxidative stress towards selective NSCLC therapy; synthesis, evaluation, and molecular modelling studies” (RSC Med Chem, 2024)
Blank lines part the entries; values can stand above or below the compound they belong to. Calls of active or inactive are those of the source. No cut-off for these calls is given here.

What was measured:
[1] = test system: A549; assay: Induction of cell cycle arrest in human A549 cells assessed as accumulation of aggregates at 0.089 uM incubated for 48 hrs by propidium iodide staining based immunocytometric analysis (reference value: 1.81 %); format: functional
[2] = test system: A549; assay: cells; settings: Homo sapiens, A549, 72 h
Description: Cytotoxicity against human A549 cells incubated for 72 hrs by MTT assay

[3] = test system: A549; assay: Induction of apoptosis in human A549 cells assessed as necrotic cells at 0.089 uM incubated for 48 hrs by annexin V-FITC/PI staining based flow cytometry (reference value: 1.21 %); format: functional
[4] = test system: Calf thymus DNA; assay: Binding affinity to calf thymus DNA assessed as disruption of DNA by measuring increase in TB3+ fluorescence upto 4 uM incubated for 24 hrs followed by biosensor TbCl3 addition by fluorescence spectrophotometric analysis; format: tissue-based; settings: Bos taurus
[5] = test system: NCI-H460; assay: Cytotoxicity against human NCI-H460 cells incubated for 72 hrs by MTT assay; settings: NCI-H460, 72 h
[6] = test system: A549; assay: Induction of cell cycle arrest in human A549 cells assessed as accumulation of cell debris at 0.089 uM incubated for 48 hrs by propidium iodide staining based immunocytometric analysis (reference value: 2.25 %); format: functional
[7] = test system: A549; assay: Induction of apoptosis in human A549 cells assessed as late apoptotic cells at 0.089 uM incubated for 48 hrs by annexin V-FITC/PI staining based flow cytometry (reference value: 0.28 %); format: functional
[8] = test system: A549; assay: Induction of cell cycle arrest in human A549 cells assessed as accumulation of cells at G2/M phase at 0.089 uM incubated for 48 hrs by propidium iodide staining based immunocytometric analysis (reference value: 18.31 %); format: functional
[9] = test system: A549; assay: Induction of cell cycle arrest in human A549 cells assessed as accumulation of cells at G1 phase at 0.089 uM incubated for 48 hrs by propidium iodide staining based immunocytometric analysis (reference value: 44.75 %); format: functional
[10] = test system: A549; assay: Induction of cell cycle arrest in human A549 cells assessed as accumulation of cells at S phase at 0.089 uM incubated for 48 hrs by propidium iodide staining based immunocytometric analysis (reference value: 36.94 %); format: functional
[11] = test system: WI-38; assay: Cytotoxicity against human WI-38 cells by measuring effective concentration incubated for 72 hrs by MTT assay; format: toxicity, cell-based; settings: wi-38, 72 h
[12] = test system: Calf thymus DNA; assay: Binding affinity to calf thymus DNA assessed as disruption of DNA by measuring increase in TB3+ fluorescence at 24.6 nM incubated for 24 hrs followed by biosensor TbCl3 addition by fluorescence spectrophotometric analysis; format: tissue-based; settings: Bos taurus
[13] = Antioxidant activity assessed as DPPH radical scavenging activity at 10 uM incubated for 30 mins by absorbance based assay relative to trolox; format: functional
[14] = Cytotoxicity against human WI-38 cells incubated for 72 hrs by MTT assay; format: toxicity, cell-based
[15] = test system: A549; assay: Induction of apoptosis in human A549 cells assessed as early apoptotic cells at 0.089 uM incubated for 48 hrs by annexin V-FITC/PI staining based flow cytometry (reference value: 0.37 %); format: functional
[16] = test system: Calf thymus DNA; assay: Binding affinity to calf thymus DNA assessed as disruption of DNA by measuring increase in TB3+ fluorescence at 5 uM incubated for 24 hrs followed by biosensor TbCl3 addition by fluorescence spectrophotometric analysis; format: tissue-based; settings: Bos taurus
[17] = Antioxidant activity assessed as DPPH radical scavenging activity incubated for 30 mins by absorbance based assay; format: functional
[18] = Antioxidant activity assessed as DPPH radical scavenging activity at 100 uM incubated for 30 mins by absorbance based assay (reference value: […] %); format: functional
[19] = test system: A549; assay: Cytotoxicity against human A549 cells assessed as morphological damage incubated for 72 hrs by inverted phase contrast microscopic analysis; format: functional, cell-based
[20] = test system: Calf thymus DNA; assay: Binding affinity to calf thymus DNA assessed as disruption of DNA by measuring increase in TB3+ fluorescence at 35.3 nM incubated for 24 hrs followed by biosensor TbCl3 addition by fluorescence spectrophotometric analysis; format: tissue-based; settings: Bos taurus
[21] = Selectivity index, ratio of IC50 for cytotoxicity against human WI-38 cells to IC50 for cytotoxicity against human NCI-H460 cells; format: toxicity, cell-based; settings: WI-38 cells versus NCI-H460 cells, read-out: Ratio IC50
[22] = Selectivity index, ratio of IC50 for cytotoxicity against human WI-38 cells to IC50 for cytotoxicity against human A549 cells; format: toxicity, cell-based; settings: WI-38 cells versus A549 cells, read-out: Ratio IC50

Compound: COc1cccc2c1C(=O)c1c(O)c3c(c(O)c1C2=O)C[C@@](O)(C(=O)CO)C[C@@H]3O[C@H]1C[C@H](N)[C@H](O)[C@H](C)O1 [DOXORUBICIN]
EC100 [11]: 0.033 µM
IC50 at 72 h [14]: 129 nM
Activity [16]: Active

Compound: O=C(c1ccc(Br)cc1)[C@H]1[C@H](c2cn(-c3ccccc3)nc2-c2ccccc2)[C@@H]2CC3CCCCC3N2[C@]12C(=O)Nc1ccccc12 (some centres undefined)
IC50 [2]: 158 nM
IC50 [5]: 725 nM
selectivity ratio [21]: 0.64
EC100 [11]: 0.271 µM
IC50 at 72 h [14]: 466 nM
selectivity ratio [22]: 2.95

Compound: O=C(c1ccc([N+](=O)[O-])cc1)[C@H]1[C@H](c2cn(-c3ccccc3)nc2-c2ccccc2)[C@@H]2CC3CCCCC3N2[C@]12C(=O)Nc1ccccc12 (some centres undefined)
IC50 [2]: 205 nM
IC50 [5]: 909 nM
selectivity ratio [21]: 0.78
EC100 [11]: 0.41 µM
IC50 at 72 h [14]: 712 nM
selectivity ratio [22]: 3.47

Compound: CN1C[C@@H](c2cn(-c3ccccc3)nc2-c2ccccc2)[C@H](C(=O)c2ccc([N+](=O)[O-])cc2)[C@@]12C(=O)Nc1ccc(Cl)cc12
IC50 [2]: 131 nM
IC50 [5]: 1030 nM
selectivity ratio [21]: 0.46
EC100 [11]: 0.287 µM
IC50 at 72 h [14]: 480 nM
selectivity ratio [22]: 3.66

Compound: CN1C[C@@H](c2cn(-c3ccccc3)nc2-c2ccccc2)[C@H](C(=O)c2ccccc2)[C@@]12C(=O)Nc1ccc(Cl)cc12
IC50 [2]: 283 nM
IC50 [5]: 417 nM
selectivity ratio [21]: 1.3
EC100 [11]: 0.308 µM
IC50 at 72 h [14]: 545 nM
selectivity ratio [22]: 1.93

Compound: CN1C[C@@H](c2cn(-c3ccccc3)nc2-c2ccccc2)[C@H](C(=O)c2ccc([N+](=O)[O-])cc2)[C@@]12C(=O)Nc1ccccc12
IC50 [2]: 223 nM
IC50 [5]: 748 nM
selectivity ratio [21]: 0.99
EC100 [11]: 0.375 µM
IC50 at 72 h [14]: 741 nM
selectivity ratio [22]: 3.32

Compound: CN1C[C@@H](c2cn(-c3ccccc3)nc2-c2ccccc2)[C@H](C(=O)c2ccccc2)[C@@]12C(=O)Nc1ccccc12
IC50 [2]: 344 nM
IC50 [5]: 761 nM
selectivity ratio [21]: 1.71
EC100 [11]: 0.59 µM
IC50 at 72 h [14]: 1300 nM
selectivity ratio [22]: 3.79

Compound: O=C(c1ccc(Br)cc1)[C@H]1[C@H](c2cn(-c3ccccc3)nc2-c2ccccc2)[C@@H]2CC3CCCCC3N2[C@]12C(=O)Nc1cc(Cl)ccc12 (some centres undefined)
IC50 [2]: 205 nM
IC50 [5]: 1420 nM
selectivity ratio [21]: 0.73
EC100 [11]: 0.594 µM
IC50 at 72 h [14]: 1040 nM
selectivity ratio [22]: 5.05

Compound: O=C(c1ccccc1)[C@H]1[C@H](c2cn(-c3ccccc3)nc2-c2ccccc2)[C@@H]2CC3CCCCC3N2[C@]12C(=O)Nc1ccccc12 (some centres undefined)
IC50 [2]: 307 nM
IC50 [5]: 537 nM
selectivity ratio [21]: 1.53
EC100 [11]: 0.451 µM
IC50 at 72 h [14]: 825 nM
selectivity ratio [22]: 2.69

Compound: COc1ccc2c(c1)[C@@]1(C(=O)N2)[C@@H](C(=O)c2ccc([N+](=O)[O-])cc2)[C@H](c2cn(-c3ccccc3)nc2-c2ccccc2)CN1C
IC50 [2]: 235 nM
IC50 [5]: 1140 nM
selectivity ratio [21]: 1.3
EC100 [11]: 0.539 µM
IC50 at 72 h [14]: 1490 nM
selectivity ratio [22]: 6.34

Compound: COc1ccc2c(c1)[C@@]1(C(=O)N2)[C@@H](C(=O)c2ccc([N+](=O)[O-])cc2)[C@H](c2cn(-c3ccccc3)nc2-c2ccccc2)[C@@H]2CC3CCCCC3N21 (some centres undefined)
IC50 [2]: 212 nM
IC50 [5]: 895 nM
selectivity ratio [21]: 0.86
EC100 [11]: 0.366 µM
IC50 at 72 h [14]: 773 nM
selectivity ratio [22]: 3.65

The next lines start with results.

IC50 [2]: 89 nM
Compound: O=C(c1ccc([N+](=O)[O-])cc1)[C@H]1[C@H](c2cn(-c3ccccc3)nc2-c2ccccc2)[C@@H]2CC3CCCCC3N2[C@]12C(=O)Nc1ccc(Cl)cc12 (some centres undefined)
Activity [1]: 1.96%
Activity [3]: 7.46%
Activity [4]: Active
IC50 [5]: 2460 nM
Activity [6]: 2.03%
Activity [7]: 15.13%
Activity [8]: 28.16%
Activity [9]: 38.56%
Activity [10]: 33.28%
EC100 [11]: 0.249 µM
Activity [12]: Active
Activity [13]: 60%
IC50 at 72 h [14]: 480 nM
Activity [15]: 25.72%
Activity [16]: Active
Activity [17]: Dose-Dependent Effect
Activity [18]: 88.4%
Activity [19]: Active

IC50 [2]: 96 nM
Compound: O=C(c1ccccc1[N+](=O)[O-])[C@H]1[C@H](c2cn(-c3ccccc3)nc2-c2ccccc2)[C@@H]2CC3CCCCC3N2[C@]12C(=O)Nc1ccc(Cl)cc12 (some centres undefined)
Activity [4]: Active
IC50 [5]: 1340 nM
Activity [20]: Active
EC100 [11]: 0.094 µM
IC50 at 72 h [14]: 294 nM
Activity [16]: Active
Activity [19]: Active

IC50 [2]: 170 nM
Compound: O=C(c1ccccc1[N+](=O)[O-])[C@H]1[C@H](c2cn(-c3ccccc3)nc2-c2ccccc2)[C@@H]2CC3CCCCC3N2[C@]12C(=O)Nc1ccccc12 (some centres undefined)
IC50 [5]: 613 nM
selectivity ratio [21]: 0.67
EC100 [11]: 0.224 µM
IC50 at 72 h [14]: 413 nM
selectivity ratio [22]: 2.43

IC50 [2]: 231 nM
Compound: O=C(c1ccccc1)[C@H]1[C@H](c2cn(-c3ccccc3)nc2-c2ccccc2)[C@@H]2CC3CCCCC3N2[C@]12C(=O)Nc1ccc(Cl)cc12 (some centres undefined)
IC50 [5]: 529 nM
selectivity ratio [21]: 0.88
EC100 [11]: 0.28 µM
IC50 at 72 h [14]: 467 nM
selectivity ratio [22]: 2.02

IC50 [2]: 130 nM
Compound: O=C(c1ccccc1[N+](=O)[O-])[C@H]1[C@H](c2cn(-c3ccccc3)nc2-c2ccccc2)[C@@H]2CC3CCCCC3N2[C@]12C(=O)Nc1cc(Cl)ccc12 (some centres undefined)
IC50 [5]: 911 nM
selectivity ratio [21]: 0.48
EC100 [11]: 0.142 µM
IC50 at 72 h [14]: 435 nM
selectivity ratio [22]: 3.35

IC50 [2]: 192 nM
Compound: O=C(c1ccccc1)[C@H]1[C@H](c2cn(-c3ccccc3)nc2-c2ccccc2)[C@@H]2CC3CCCCC3N2[C@]12C(=O)Nc1cc(Cl)ccc12 (some centres undefined)
IC50 [5]: 964 nM
selectivity ratio [21]: 0.53
EC100 [11]: 0.267 µM
IC50 at 72 h [14]: 509 nM
selectivity ratio [22]: 2.65
